Tests used:
Haemonchus contortus = test: In vivo nematode test, Haemonchus contortus / sheep; conditions: experimentally infected sheep (Schaf), treated after the prepatent period, pure active compound in gelatin capsules, oral, dose giving complete cessation of egg excretion in faeces, read-out: Dosis effectiva
Excerpt: Haemonchus contortus / Schaf
Experimentell mit Haemonchus contortus infizierte Schafe wurden nach Ablauf der Präpatenzzeit des Parasiten behandelt. Die Wirkstoffe wurden als reiner Wirkstoff in Gelatinekapseln oral appliziert.
Der Wirkungsgrad wird dadurch bestimmt, daß man die mit dem Kot ausgeschiedenen […] vor und nach der Behandlung quantitativ auszählt.
Ein völliges Sistieren der Eiausscheidung nach der Behandlung bedeutet, daß die Würmer abgetrieben wurden oder so geschädigt sind, daß sie keine Eier mehr produzeiren (Dosis effectiva).
Geprüfte Wirkstoffe und wirksame Dosierungen (Dosis effectiva) sind aus der nachfolgenden Tabelle ersichtlich: […]

[1] = test system: Trichostrongylus colubriformis; test: In vivo nematode test, Trichostrongylus colubriformis / sheep; conditions: experimentally infected sheep (Schaf), treated after the prepatent period, pure active compound in gelatin capsules, oral, dose giving complete cessation of egg excretion in faeces, read-out: Dosis effectiva
Excerpt: Trichostrongylus colubriformis / Schaf
Experimentell mit Trichostrongylus colubriformis infizierte Schafe wurden nach Ablauf der Präpatenzzeit des Parasiten behandelt. Die Wirkstoffe wurden als reiner Wirkstoff in Gelatinekapseln oral appliziert.
Der Wirkungsgrad wird dadurch bestimmt, daß man die mit dem Kot ausgeschiedenen Wurmeier vor und nach der Behandlung quantitativ auszählt.
Ein völliges Sistieren der Eiausscheidung nach der Behandlung bedeutet, daß die Würmer abgetrieben wurden oder so geschädigt sind, daß sie keine Eier mehr produzieren (Dosis effectiva).
Geprüfte Wirkstoffe und wirksame Dosierungen (Dosis effectiva) sind aus der nachfolgenden Tabelle ersichtlich.

| SMILES | minimal effective dose (Haemonchus contortus) [mg/kg] | minimal effective dose [1] [mg/kg] |
| --- | --- | --- |
| CSc1ncccc1C(=O)Nc1ccccc1 [Beispiel 1] | 10 |  |
| CCCSc1ncccc1C(=O)Nc1ccccc1 [Beispiel 2] | 10 | 10 |
| C=CCSc1ncccc1C(=O)Nc1ccccc1 [Beispiel 3] |  | 10 |
| CCCSc1ncccc1C(=O)Nc1ccccc1Cl [Beispiel 6] | 5 |  |
| CSc1ncccc1C(=O)Nc1ccc(Cl)cc1 [Beispiel 7] | 10 | 5 |
| CCCSc1ncccc1C(=O)Nc1ccc(Cl)cc1 [Beispiel 9] | 10 |  |
| CCSc1ncccc1C(=O)Nc1ccc(Cl)cc1 [Beispiel 13] |  | 10 |
| CCSc1ncccc1C(=O)Nc1ccccc1 [Beispiel 24] | 10 |  |
| CCCSc1ncccc1C(=O)Nc1ccc(SC(F)(F)F)cc1 [Beispiel 29] | 10 | 10 |
| CSc1ncccc1C(=O)Nc1ccc(Sc2ccc(Cl)cc2)cc1C(F)(F)F [Beispiel 87] |  | 10 |

— patent EP0480258A2, “Use of substituted 2-mercapto-nicotinic acid derivatives for combat against endoparasites, novel substituted 2-mercaptonicotinir acid derivatives and processes for their preparation” (BAYER AG, priority 1990, dated 1992)
